Source: patent US12042485B2, “Methods of minimizing cancer metastasis” (MEDICINOVA, INC., priority 2021, dated 2024)

What was measured:
[1] = biological target: T1, macrophage inhibitory factor (MIF) (Homo sapiens, UniProt P14174); conditions: Cho et al., PNAS-USA 2010; cited from earlier work
T1 sequence (P14174 2-115 limits assumed): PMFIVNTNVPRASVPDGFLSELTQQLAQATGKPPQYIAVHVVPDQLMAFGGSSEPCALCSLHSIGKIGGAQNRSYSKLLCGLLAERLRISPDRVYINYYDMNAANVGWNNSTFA

[2] = Sanftner et al Xenobiotica 2009; cited from earlier work
PDE 3A = PDE 3A (Homo sapiens, UniProt Q14432); conditions: Gibson et al., Eur. J. Pharmacol. 2006; cited from earlier work
PDE 4 = conditions: Gibson et al., Eur. J. Pharmacol. 2006; cited from earlier work
PDE 10A1 = PDE 10A1 (Homo sapiens, UniProt Q9Y233); conditions: Gibson et al., Eur. J. Pharmacol. 2006; cited from earlier work
PDE 11A1 = PDE 11A1 (Homo sapiens, UniProt Q9HCR9); conditions: Gibson et al., Eur. J. Pharmacol. 2006; cited from earlier work
[3] = biological target: toll-like receptor-4 (TLR4) (Homo sapiens, UniProt O00206); conditions: Yang et al., Cell Death and Disease 2016; cited from earlier work
MIF = assay: plasma level of MIF after ibudilast; conditions: found by the inventors; no data given

toll-like receptor-4 (TLR4), sequence (O00206 24-839, species assumed): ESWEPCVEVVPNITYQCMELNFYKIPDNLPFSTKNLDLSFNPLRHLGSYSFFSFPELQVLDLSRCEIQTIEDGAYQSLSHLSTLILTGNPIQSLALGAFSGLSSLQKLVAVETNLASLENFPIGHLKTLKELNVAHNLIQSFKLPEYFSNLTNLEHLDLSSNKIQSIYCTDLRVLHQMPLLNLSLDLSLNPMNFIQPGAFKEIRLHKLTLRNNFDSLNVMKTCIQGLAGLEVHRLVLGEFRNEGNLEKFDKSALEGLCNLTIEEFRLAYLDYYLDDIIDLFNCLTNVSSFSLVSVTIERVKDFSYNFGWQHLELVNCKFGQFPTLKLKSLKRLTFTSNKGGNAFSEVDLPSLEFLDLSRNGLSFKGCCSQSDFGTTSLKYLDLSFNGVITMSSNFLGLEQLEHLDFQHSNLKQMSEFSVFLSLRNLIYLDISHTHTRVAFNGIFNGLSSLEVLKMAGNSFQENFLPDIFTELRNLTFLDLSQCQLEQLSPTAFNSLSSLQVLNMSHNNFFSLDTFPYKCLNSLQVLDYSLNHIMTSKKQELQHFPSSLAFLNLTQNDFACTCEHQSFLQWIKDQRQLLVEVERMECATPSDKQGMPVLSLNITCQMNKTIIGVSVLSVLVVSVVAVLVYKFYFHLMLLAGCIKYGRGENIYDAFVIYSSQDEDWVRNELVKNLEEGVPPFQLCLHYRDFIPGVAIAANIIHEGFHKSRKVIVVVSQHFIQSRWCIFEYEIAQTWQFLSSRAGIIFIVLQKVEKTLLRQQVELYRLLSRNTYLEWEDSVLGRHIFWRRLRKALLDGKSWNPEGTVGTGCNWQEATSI
toll-like receptor-4 (TLR4), sequence (Q9Y6Y9 17-160 partner limits assumed, species assumed): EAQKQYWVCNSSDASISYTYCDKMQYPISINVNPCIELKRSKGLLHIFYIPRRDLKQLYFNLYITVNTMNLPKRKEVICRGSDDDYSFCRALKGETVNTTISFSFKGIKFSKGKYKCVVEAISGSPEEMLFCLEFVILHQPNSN
PDE 10A1, sequence (Q9Y233 1-779 isoform Q9Y233-1): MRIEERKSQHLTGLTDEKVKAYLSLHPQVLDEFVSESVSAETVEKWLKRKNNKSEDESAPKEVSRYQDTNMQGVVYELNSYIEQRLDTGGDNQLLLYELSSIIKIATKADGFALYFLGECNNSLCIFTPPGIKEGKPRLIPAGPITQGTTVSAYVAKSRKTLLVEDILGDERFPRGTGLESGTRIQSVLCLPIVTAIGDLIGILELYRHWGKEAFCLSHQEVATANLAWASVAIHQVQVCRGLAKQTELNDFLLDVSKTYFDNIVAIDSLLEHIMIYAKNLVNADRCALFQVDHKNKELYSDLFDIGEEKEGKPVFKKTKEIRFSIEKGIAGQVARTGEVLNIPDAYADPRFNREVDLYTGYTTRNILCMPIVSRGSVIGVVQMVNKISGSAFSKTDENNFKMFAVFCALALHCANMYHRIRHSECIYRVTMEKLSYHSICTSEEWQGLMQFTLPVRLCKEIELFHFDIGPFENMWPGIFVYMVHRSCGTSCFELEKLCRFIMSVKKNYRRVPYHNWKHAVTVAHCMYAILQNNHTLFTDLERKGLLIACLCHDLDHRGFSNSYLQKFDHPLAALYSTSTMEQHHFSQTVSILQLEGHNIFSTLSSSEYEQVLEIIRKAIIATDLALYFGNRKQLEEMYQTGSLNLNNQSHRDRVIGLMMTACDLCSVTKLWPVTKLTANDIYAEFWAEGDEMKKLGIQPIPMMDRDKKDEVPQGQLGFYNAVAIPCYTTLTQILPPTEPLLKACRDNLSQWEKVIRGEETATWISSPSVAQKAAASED
PDE 11A1, sequence (Q9HCR9 445-933): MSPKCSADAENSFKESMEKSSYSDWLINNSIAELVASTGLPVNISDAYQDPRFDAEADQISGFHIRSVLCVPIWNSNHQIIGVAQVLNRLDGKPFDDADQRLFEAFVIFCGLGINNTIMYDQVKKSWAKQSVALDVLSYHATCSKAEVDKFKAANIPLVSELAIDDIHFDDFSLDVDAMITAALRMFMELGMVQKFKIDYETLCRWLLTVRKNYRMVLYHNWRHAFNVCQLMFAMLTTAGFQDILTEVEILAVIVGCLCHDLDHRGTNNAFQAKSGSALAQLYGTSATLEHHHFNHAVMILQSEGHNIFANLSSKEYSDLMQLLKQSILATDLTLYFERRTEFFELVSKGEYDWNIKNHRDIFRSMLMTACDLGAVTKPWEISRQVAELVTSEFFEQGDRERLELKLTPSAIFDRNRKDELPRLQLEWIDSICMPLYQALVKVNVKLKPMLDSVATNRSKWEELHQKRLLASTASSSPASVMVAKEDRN
PDE 3A, sequence (Q14432 whole entry): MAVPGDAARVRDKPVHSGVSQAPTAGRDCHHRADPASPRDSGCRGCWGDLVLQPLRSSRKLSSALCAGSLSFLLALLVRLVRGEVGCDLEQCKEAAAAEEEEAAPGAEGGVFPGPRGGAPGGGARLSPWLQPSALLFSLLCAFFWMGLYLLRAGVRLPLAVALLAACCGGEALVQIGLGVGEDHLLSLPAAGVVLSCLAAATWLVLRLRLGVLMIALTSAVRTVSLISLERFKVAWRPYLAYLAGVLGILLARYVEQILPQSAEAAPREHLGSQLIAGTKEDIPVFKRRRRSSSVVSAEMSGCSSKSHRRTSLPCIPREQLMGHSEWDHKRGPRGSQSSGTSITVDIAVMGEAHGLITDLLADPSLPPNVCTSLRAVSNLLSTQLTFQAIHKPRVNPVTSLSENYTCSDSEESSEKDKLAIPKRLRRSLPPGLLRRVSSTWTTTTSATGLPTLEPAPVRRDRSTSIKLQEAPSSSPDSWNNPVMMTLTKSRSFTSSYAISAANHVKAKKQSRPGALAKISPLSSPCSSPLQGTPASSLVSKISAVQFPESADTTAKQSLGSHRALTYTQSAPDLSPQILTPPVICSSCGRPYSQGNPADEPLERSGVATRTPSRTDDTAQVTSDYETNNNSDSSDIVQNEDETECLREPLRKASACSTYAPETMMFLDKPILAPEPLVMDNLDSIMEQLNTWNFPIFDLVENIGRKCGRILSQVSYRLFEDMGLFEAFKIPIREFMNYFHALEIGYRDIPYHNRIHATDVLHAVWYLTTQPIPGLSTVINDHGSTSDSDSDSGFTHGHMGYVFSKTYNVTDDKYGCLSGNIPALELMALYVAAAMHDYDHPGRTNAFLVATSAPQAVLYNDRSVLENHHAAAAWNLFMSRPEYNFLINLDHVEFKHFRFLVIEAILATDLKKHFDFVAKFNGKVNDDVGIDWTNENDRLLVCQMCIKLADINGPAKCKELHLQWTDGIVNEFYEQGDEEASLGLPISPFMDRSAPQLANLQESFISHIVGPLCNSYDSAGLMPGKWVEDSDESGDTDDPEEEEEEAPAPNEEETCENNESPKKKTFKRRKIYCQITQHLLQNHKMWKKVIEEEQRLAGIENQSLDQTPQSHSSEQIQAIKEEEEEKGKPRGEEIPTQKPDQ

CC(C)C(=O)c1c(C(C)C)nn2ccccc12 [ibudilast, 2-methyl-1-(2-(1-methylethyl)pyrazolo(1,5-a)pyridin-3-yl)1-propanone]
inhibition of HPP tautomerase activity of MIF [1]: allosteric inhibitor | CNS penetration [2]: good CNS penetration | inhibition of PDE 3A (PDE 3A): selective inhibitor | inhibition of PDE 4 (PDE 4): selective inhibitor | inhibition of PDE 10A1 (PDE 10A1): selective inhibitor | inhibition of PDE 11A1 (PDE 11A1): selective inhibitor | TLR4 antagonistic activity [3]: antagonistic activity | plasma level of MIF (MIF): lowers
